Experimental data taken from US20240245633A1, “ROR Gamma Agonists as Enhancers of Protective Immunity” (University of Florida Research Foundation, Incorporated, priority 2015, published 2024).
Marks after values point to notes of the source that are not given here.

Experiments:
[1] = test system: differentiated TH17 cells; test: TH17 cell differentiation, flow cytometry; type: cell-based, murine
Description: (§1) Using flow cytometery surface PD-1 expression was analyzed to determine if the decrease in gene expression of PD-1 correlates to a decrease of the protein on the cell surface, Cell: surface PD-1 expression was measured in murine and human T cell lines as well as in ex vivo differentiated murine TH17 cells. […] Next we examined the impact of compound treatment on differentiated murine TH17 cells. […] To determine if there was an increase in the active T cell population during TH17 cell differentiation, the population of CD62L^−PD1^− double negative cells was measured using flow cytometry. […] To determine if the effects of SR0987 on PD-1 expression would be observed in a human cell line, Jurkat T cells were treated with the compound.
TH17 cell differentiation. For naïve T cell differentiation, CD4^+T cells were enriched by negative selection using a magnetic-activated cell sorter kit (Millipore). Enriched CD4+ T cells activated with 5 μg/mL of plate-abound anti CD3 antibody and 1 μg/mL of anti-CD28 antibody in the presence of 20 μg/mL of anti-IFNγ, 20 μg/mL of anti-IL-4, 1 ng/mL of TGFβ, AND 10 ng/mL of IL-6. Four-five days post differentiation, all cells were stimulated for 5 hr with 5 ng/mL of phorbol-12-myristate-13-acetate (Sigma) and 500 ng/mL of ionomycin (Sigma) contained with brefeldin A solution (eBioscience).

[2] = test system: Jurkat T cells; test: PD-1 surface expression in Jurkat T cells; type: cell-based, human
Description: as §1
(§2) Gene expression and Cell sorting. Jurkat T cells were pre-incubated with compounds for 48 hr and activated with phorbol 12-myristate 13-acetate (PMA, 50 ng/mL; Sigma) and ionomycin (1 μg/mL; Sigma) for 5 hr. For qPCR, mRNA was isolated with an RNeasy midi kit using DNase I (Qiagen), and cDNA was synthesized with high capacity cDNA Reverse Transcription kit (Applied Biosystems). IL17A, PD-1, and granzyme B gene expression were normalized to the expression of GAPDH. The sequence of primers used in this study are found in Table 2. For cell sorting, activated Jurkat T cells were stained with APC conjugated anti-human PD-1 antibody (eBioscience). […]

[3] = test system: EL4 cells; test: PD-1 surface expression in EL4 cells by flow cytometry; type: cell-based, murine; conditions: compound 48 hr
Description: as §1, §2

[4] = test system: EL4 T lymphocytes; test: qPCR gene expression in PMA/ionomycin stimulated EL4 cells; type: cell-based, murine; conditions: PMA/ionomycin 5 hr
Description: Here we used murine EL4 T lymphocytes or human Jurkat T cells as model systems to analyze gene expression upon T cell activation. Following treatment of cells with Phorbol 12-myristate 13-acetate (PMA) and ionomycin, the expression of granzyme B (cytotoxicity marker), PD-1 (immune checkpoint) and the RORγt target gene IL17 were analyzed by qPCR.
Gene expression and Cell sorting. Jurkat T cells were pre-incubated with compounds for 48 hr and activated with phorbol 12-myristate 13-acetate (PMA, 50 ng/mL; Sigma) and ionomycin (1 μg/mL; Sigma) for 5 hr. For qPCR, mRNA was isolated with an RNeasy midi kit using DNase I (Qiagen), and cDNA was synthesized with high capacity cDNA Reverse Transcription kit (Applied Biosystems). IL17A, PD-1, and granzyme B gene expression were normalized to the expression of GAPDH. The sequence of primers used in this study are found in Table 2. For cell sorting, activated Jurkat T cells were stained with APC conjugated anti-human PD-1 antibody (eBioscience). Cell sorting was performed using LSRII (BD Bioscience).

[5] = biological target: T1, RORγt (Homo sapiens, UniProt P51449); conditions: Circular Dichroism; cited from earlier work
T1 sequence (P51449 1-497 isoform P51449-2): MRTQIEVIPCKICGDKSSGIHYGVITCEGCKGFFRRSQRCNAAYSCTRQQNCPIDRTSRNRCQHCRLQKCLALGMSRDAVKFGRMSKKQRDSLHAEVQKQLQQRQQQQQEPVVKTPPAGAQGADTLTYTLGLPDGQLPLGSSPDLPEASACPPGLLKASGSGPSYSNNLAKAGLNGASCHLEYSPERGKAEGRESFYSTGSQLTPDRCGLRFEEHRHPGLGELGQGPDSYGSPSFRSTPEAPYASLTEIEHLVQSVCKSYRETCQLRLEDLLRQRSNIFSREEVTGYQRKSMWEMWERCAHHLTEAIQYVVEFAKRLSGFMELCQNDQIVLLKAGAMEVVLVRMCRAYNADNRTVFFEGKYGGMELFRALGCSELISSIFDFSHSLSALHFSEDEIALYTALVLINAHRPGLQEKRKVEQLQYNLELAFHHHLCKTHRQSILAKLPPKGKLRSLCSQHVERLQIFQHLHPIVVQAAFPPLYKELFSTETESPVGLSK

[6] = biological target: T2, Gal4-RORγ (Homo sapiens, UniProt P51449); test: cell-based; conditions: HEK-293T, read-out: fold induction of reporter gene expression
T2 sequence (P51449 269-508 limits assumed): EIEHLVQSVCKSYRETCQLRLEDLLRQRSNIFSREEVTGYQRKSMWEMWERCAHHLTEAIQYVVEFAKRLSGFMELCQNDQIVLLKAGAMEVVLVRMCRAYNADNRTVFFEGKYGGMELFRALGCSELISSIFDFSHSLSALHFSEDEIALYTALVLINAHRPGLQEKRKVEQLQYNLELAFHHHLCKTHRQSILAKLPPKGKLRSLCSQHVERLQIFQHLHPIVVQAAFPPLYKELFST

[7] = biological target: ligand binding domain (LBD) of RORγt (Homo sapiens, UniProt P51449); conditions: read-out: IC50, competitive radioligand binding; cited from earlier work
[8] = biological target: T3, RORγ LBD / SRC1-3 NR box peptide (Homo sapiens, UniProt P51449); test: NR box peptide interaction assay (TR-FRET); type: biochemical; conditions: concentration response
T3 sequence (P51449 269-508 limits assumed): T2 sequence (P51449 269-508 limits assumed)
Description: NR box peptide interaction assay. A TR-FRET-based interaction assay was used. […] The mixtures were incubated for 2 hr at R.T., and fluorescence intensity was measured on an Envision pate reader with excitation at 340 nm and emission at 490 nm and 520 nm. The ratio of intensity at 520 nm/490 nm was used to calculate cofactor recruitment activity.

[9] = biological target: T4, RORγt LBD pretreated with ursolic acid (Homo sapiens, UniProt P51449); test: Differential HDX-MS of RORγt pretreated with ursolic acid ± compound; type: binding
T4 construct: 5 μL of a 10 μM RORγt LBD solution (Apo or in complex with 10-excess compound)
T4 sequence (P51449 269-508 limits assumed): T2 sequence (P51449 269-508 limits assumed)
Text: While the mechanism of action of RORγt agonists on regulation of the immune checkpoint receptor PD-1 is unclear, a correlation between RORγt and PD-1 expression has been observed in PD-1 knockout mice Z Regardless, to gain insights into the structural mechanism for agonist activity we examined the impact of putative agonist ligands on the conformational dynamics of RORγt. To achieve this, we utilized differential hydrogen/deuterium exchange (HDX) mass spectrometry.
HDX-MS. Solution-phase amide HDX was performed with a fully automated system as described previously with minor modifications^30,31. For differential HDX experiments, 5 μL of a 10 μM RORγt LBD solution (Apo or in complex with 10-excess compound) was diluted to 25 μL with D20-containing HDX buffer, and incubated at 4° C. for; 10 s, 30s, 60s, 900s, and 3,600s, Following on-exchange, unwanted forward or back exchange is minimized and the protein is denatured by dilution to 50 μL with 0.1% TFA in 3M urea (held at 4° C., pH 2.5). Samples are then passed across an immobilized pepsin column (prepared in house) at 50 μL min−1 (0.1% TFA, 15° C.) and the resulting peptides are trapped onto a Ce trap cartridge (Thermo Fisher, Hypersil Gold). Peptides were then gradient eluted (4% CH3CN to 40% CH3CN, 0,3% formic acid over 5 minutes, 4° C.) across a 1 mm×50 mm Cia HPLC column (Hypersil Gold, Thermo Fisher) and electrosprayed directly into a high resolution orbitrap mass spectrometer (Exactive, Thermo Fisher). Percent deuterium exchange values for peptide isotopic envelopes at each time point were calculated and processed using HDX Workbench^32 and overlaid onto RORγt crystal structures using pyMOL (DeLano Scientific). HDX data is presented as an average of three individual replicates across […] time points (10s, 60s, 300s, 900s, and 3600s).

[10] = test system: ROR target genes FGF21 and G6Pase; conditions: in cells and in vivo; cited from earlier work

## O=C(Nc1ccc(C(O)(C(F)(F)F)C(F)(F)F)cc1)c1ccccc1Cl [SR0987, 2-chloro-N-(4-(1,1,1,3,3,3-hexafluoro-hydroxypropan-2-yl)phenyl)benzamide]
[1]; compared to DMSO treated cells
  CD62L−PD1−CD4+ cell population: statistically significant increase
[1]; murine TH17 cells
  IL17 production (intracellular staining of IL17A): trend towards increased IL17 production
  surface PD-1 expression: repress surface PD-1 expression
[2]
  cell surface PD-1 expression: decreased cell surface PD-1 expression
[3]
  surface expression of PD-1: statistically significant reduction of the surface expression of PD-1
[4]
  IL17 mRNA expression: further increase in expression of IL17
  PD-1 mRNA expression: decrease in expression of PD-1
  granzyme B mRNA expression: did not impact the expression of granzyme B

## O=C(Nc1ccc(C(O)(C(F)(F)F)C(F)(F)F)cc1)c1ccc(C(F)(F)F)cc1 [SR1078]
[5]
  interaction with RORγt via thermal shift assay: direct interaction
[6]
  fold induction at 30 µM: ≥ 2
[7]
  IC50: ~15 µM
[8]
  interaction of RORγt with SRC1-3 NR box peptide: concentration dependent increase in interaction
[9]; RORγt exposed to ursolic acid, then compound
  protection to solvent exchange in H12: induced protection to solvent exchange in H12
[9]; UA pretreated, 268-275, charge 2, H1
  Differential HDX kinetics, peptide TEIEHLVQ: −2(3)*
[9]; UA pretreated, 268-278, charge 2, H1
  Differential HDX kinetics, peptide TEIEHLVQSVC: 0(3)*
[9]; UA pretreated, 268-280, charge 3, H1
  Differential HDX kinetics, peptide TEIEHLVQSVCKS: 1(4)*
[9]; UA pretreated, 268-286, charge 3, H1
  Differential HDX kinetics, peptide TEIEHLVQSVCKSYRETCQ: 0(3)*
[9]; UA pretreated, 268-286, charge 4, H1
  Differential HDX kinetics, peptide TEIEHLVQSVCKSYRETCQ: 1(3)*
[9]; UA pretreated, 288-292, charge 1, H2
  Differential HDX kinetics, peptide RLEDL: −2(4)*
[9]; UA pretreated, 288-293, charge 1, H2
  Differential HDX kinetics, peptide RLEDLL: −3(5)*
[9]; UA pretreated, 304-316, charge 2, H3/H4
  Differential HDX kinetics, peptide EVTGYQRKSMWEM: 1(4)*
[9]; UA pretreated, 317-329, charge 3, H4
  Differential HDX kinetics, peptide WERCAHHLTEAIQ: 0(1)*
[9]; UA pretreated, 317-330, charge 3, H4
  Differential HDX kinetics, peptide WERCAHHTEAIQY: 1(1)*
[9]; UA pretreated, 331-341, charge 2, H4/H5
  Differential HDX kinetics, peptide WEGAKRLSGF: 0(2)*
[9]; UA pretreated, 334-341, charge 2, H4/H5
  Differential HDX kinetics, peptide FAKRLSGF: 0(2)*
[9]; UA pretreated, 345-352, charge 1, H5/H6
  Differential HDX kinetics, peptide CQNDQM: 0(1)*
[9]; UA pretreated, 368-377, charge 2, B1
  Differential HDX kinetics, peptide CRAYNADNRTVF: 2(1)*
[9]; UA pretreated, 369-377, charge 2, B1
  Differential HDX kinetics, peptide YNADNRTVF: 1(3)*
[9]; UA pretreated, 378-387, charge 2, B2/H7
  Differential HDX kinetics, peptide FEGKYGGMEL: 2(3)*
[9]; UA pretreated, 388-395, charge 2, H7/H8
  Differential HDX kinetics, peptide FRALGCSEL: −1(2)*
[9]; UA pretreated, 396-410, charge 2, H8
  Differential HDX kinetics, peptide LISSIFDFSHSLSAL: 2(2)*
[9]; UA pretreated, 397-407, charge 1, H8
  Differential HDX kinetics, peptide ISSIFD: 1(2)*
[9]; UA pretreated, 397-410, charge 2, H8
  Differential HDX kinetics, peptide ISSIFDFSHSLSAL: 2(2)*
[9]; UA pretreated, 400-410, charge 2, H8
  Differential HDX kinetics, peptide IFDFSHSLSAL: 3(2)*
[9]; UA pretreated, 402-410, charge 2, H8
  Differential HDX kinetics, peptide DFSHSKSAL: 2(2)*
[9]; UA pretreated, 403-410, charge 2, H8
  Differential HDX kinetics, peptide FSHSLSAL: 2(3)*
[9]; UA pretreated, 454-478, charge 3, H11
  Differential HDX kinetics, peptide AXLPPXGKLRSLCSQ: 0(4)*
[9]; UA pretreated, 479-495, charge 2, H11
  Differential HDX kinetics, peptide HVERLQIFQHLHPIWQ: −6(3)*
[9]; UA pretreated, 496-505, charge 2, H12
  Differential HDX kinetics, peptide AAFPPLYKEL: −7(2)*
[9]; UA pretreated, 496-506, charge 2, H12
  Differential HDX kinetics, peptide AAFPPLYKELF: −5(2)*
[9]; UA pretreated, charge 2, H9
  Differential HDX kinetics, peptide HFSEDEIAL: 0(1)*
[9]; UA pretreated, charge 2, H11
  Differential HDX kinetics, peptide QIFQHLHPIWQ: −10(3)*
[9]; UA pretreated, charge 3, H1
  Differential HDX kinetics, peptide TEIEHLVQSVCKSYRETCQL: 0(4)*
[9]; UA pretreated, charge 3, H6/B1
  Differential HDX kinetics, peptide VRMCRAYNADNRTVF: 1(1)*
[10]
  expression of ROR target genes FGF21 and G6Pase: induced the expression of the ROR target genes FGF21 and G6Pase
